The values that follow come from US12383531B2, “PLA2 inhibitors for treatment of pathological conditions caused by hymenoptera envenomation, such as hemolysis, cerebral edema, and acute kidney injury” (Ophirex, Inc., priority 2016, dated 2025).

Structures are written as SMILES. Entries after “also recorded” stand apart in the source; their conditions may differ.

Assay [1] deals with C. adamanteus venom sPLA2. In words: sPLA2 chromogenic inhibition assay, C. adamanteus venom. The format is biochemical. The settings on record: chromogenic sPLA2 assay after 60 of incubation, read-out: IC50 for each venom inhibitor.
Assay [2] deals with C. terrificus venom sPLA2. The experiment in a line: sPLA2 chromogenic inhibition assay, C. terrificus venom. The format is biochemical. The settings on record: chromogenic sPLA2 assay after 60 of incubation, read-out: IC50 for each venom inhibitor.
Assay [3] deals with venous human blood incubated with M. Fulvius venom. In words: Hemolysis of ex vivo whole human blood treated with M. Fulvius venom (FIG. 5A). In kind it is cell-based. The settings on record: inhibitor 1 uM with or without soluble simvastatin 1 uM, 90 minutes.
Assay [4] concerns the target T1, bee venom sPLA2 (Apis mellifera, UniProt P00630). The settings on record: cited from earlier work.
Assay [5] concerns histamine production or release in human blood. In words: Plasma histamine in human blood. The format is cell-based. The settings on record: human blood from a donor prone to LRR; 10 uM. The method, then:
In this example, 3 cc human blood from a donor prone to LRR was collected and shipped to Quest on ice pursuant to Quest collection protocol 36586 and incubated with (a) Mannitol+Compound 4 (10 uM), (b) Varespladib (10 uM), or (c) Mannitol alone (excipient). Samples were processed for plasma histamine levels, compared with the Mannitol-only control.

In another assay the test system is V. russelli venom sPLA2. The experiment in a line: sPLA2 chromogenic inhibition assay, V. russelli venom. The format is biochemical. The settings on record: chromogenic sPLA2 assay after 60 of incubation, read-out: IC50 for each venom inhibitor.
Assay [6] deals with T1, bee venom sPLA2. In words: biochemical. In kind it is biochemical.
The next assay has as its system bee venom. In words: Survival of mice envenomated with bee venom. The format is in vivo, CD-1 mice. The settings on record: 5 mice; bee venom 5 mg/kg IV; 25 mg/kg varespladib SQ immediately after envenomation.
For assay [7], the system named is A. contortrix venom sPLA2. In words: sPLA2 chromogenic inhibition assay, A. contortrix venom. In kind it is biochemical. The settings on record: chromogenic sPLA2 assay after 60 of incubation, read-out: IC50 for each venom inhibitor.
The test system of another assay is C. atrox venom sPLA2. The experiment in a line: sPLA2 chromogenic inhibition assay, C. atrox venom. The format is biochemical. The settings on record: chromogenic sPLA2 assay after 60 of incubation, read-out: IC50 for each venom inhibitor.
For assay [8], the system named is whole bee (Apis mellifera) venom. In words: Acute kidney injury in mice after whole bee venom (FIG. 8). The format is in vivo, mouse. The settings on record: single dose Varespladib (LY315920) with bee venom, then oral methylvarespladib (LY333013) ad libitum in diet; kidneys examined 36 hours.
The subject of assay [9] is boomslang venom or bee venom. In words: Venom-induced acute kidney injury in mice, boomslang venom or bee venom (FIG. 7). The format is in vivo, mouse. The settings on record: sublethal envenomation; single dose at same time as venom; 24 hours.
The subject of the next assay is V. berus venom sPLA2. In words: sPLA2 chromogenic inhibition assay, V. berus venom. The settings on record: chromogenic sPLA2 assay after 60 of incubation, read-out: IC50 for each venom inhibitor. In kind it is biochemical.
A further assay concerns M. fulvius venom sPLA2. In words: M. fulvius venom sPLA2 inhibition. The format is biochemical. The settings on record: 10 μM.
Another assay relates to C. atrox venom MP. In words: C. atrox venom MP inhibition. The format is biochemical. The settings on record: 10 μM.
The test system of a further assay is E. carinatus venom MP. The experiment in a line: E. carinatus venom MP inhibition. In kind it is biochemical. The settings on record: 10 μM.
For assay [10], the system named is Snake venom metalloprotease, C. atrox and E. carinatus. The experiment in a line: Snake venom metalloprotease inhibition for C. atrox and E. carinatus. The format is biochemical. The settings on record: 10 μM; range over both venoms.
Assay [11] relates to venous human blood incubated with Boomslang (Dispholidus typus) venom. In words: Hemolysis of ex vivo human blood treated with Boomslang venom (FIG. 5B). The format is cell-based. The settings on record: Compound 4 1 uM with or without soluble simvastatin 1 uM, 90 minutes.

T1 sequence (P00630 34-167 limits assumed): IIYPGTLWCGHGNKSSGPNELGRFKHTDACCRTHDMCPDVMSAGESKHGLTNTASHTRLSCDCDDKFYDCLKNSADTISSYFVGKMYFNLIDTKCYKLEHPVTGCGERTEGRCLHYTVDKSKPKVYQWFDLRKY

As to `CCc1c(C(=O)C(N)=O)c2c(OCC(=O)O)cccc2n1Cc1ccccc1` [Varespladib, ((3-(2-Amino-1,2-dioxoethyl)-2-ethyl-1-(phenylmethyl)-1H-indol-4-yl)oxy)acetic acid], the IC50 is 0.8 nM in [1]; 21 nM in assay [2]; 0.4 nM in the assay with V. russelli venom sPLA2; 12000 to 18000 nM on bee venom sPLA2 [6]; 0.9 nM in [7]; 0.7 nM in the assay with C. atrox venom sPLA2. In addition, the IC50 with V. berus venom sPLA2 was determined as 0.8 nM. In assay [3], the “anti-hemolytic activity (Hgb absorption spectra)” value is recorded as “remained unchanged with the addition of statin”. Further, at bee venom sPLA2 [4], the “performance in vitro against bee venom sPLA2 in earlier studies” value is given as “performed extremely poorly”. Also, the “Plasma Histamine” value in assay [5] came out at 5.1 ng/mL. The “higher IC50 against bee venom PLA2 as compared to snake venom PLA2” value on bee venom sPLA2 [6] was 5-45,000 fold. For the same compound, the “inhibitory activity in vitro against bee venom sPLA2” value (from here on “inhibitory activity in vitro”) against bee venom sPLA2 [6] is “very weak inhibitory activity; also recorded: not potent inhibitors”. Also, in the assay on bee venom, the “survival compared to controls” value is given as “uniformly prolonged survival”. Moreover, the “protection from AKI (pigment nephropathy, hyperemia)” value in [8] was “excellent protection from AKI”. Further, the “signs of acute kidney injury (gross kidney appearance)” value in assay [9] was “minimal signs of acute kidney injury”.
Take `CC[C@H](C)C(=O)O[C@H]1C[C@H](O)C=C2C=C[C@H](C)[C@H](CC[C@@H](O)C[C@@H](O)CC(=O)O)[C@H]21` [PRAVASTATIN, Pravastatin]: in the assay on M. fulvius venom sPLA2, the “M. fulvius venom sPLA2 inhibition % effect” value came to 6.9%. Also, in the assay with C. atrox venom MP, the “C. atrox venom MP inhibition % effect” value is recorded as 2.27%. Besides, the “E. carinatus venom MP inhibition % effect” value in the assay on E. carinatus venom MP is given as 4.02%. In addition, the “Snake venom metalloprotease inhibition for C. atrox and E. carinatus” value (“Snake venom metalloprotease inhibition” for short) in assay [10] is 2.27 to 4.02%.
On the same counts, the results for `CC[C@H](C)C(=O)O[C@H]1CCC=C2C=C[C@H](C)[C@H](CC[C@@H]3C[C@@H](O)CC(=O)O3)[C@H]21` [MEVASTATIN, Mevastatin] are 16.29%, 7.17%, −1.89 to 3.82% and −1.89 to 7.17%.
In the case of `CCC(C)(C)C(=O)O[C@H]1C[C@@H](C)C=C2C=C[C@H](C)[C@H](CC[C@@H]3C[C@@H](O)CC(=O)O3)[C@H]21` [SIMVASTATIN, Simvastatin], in the assay on M. fulvius venom sPLA2, the “M. fulvius venom sPLA2 inhibition % effect” value amounted to 16.41%. Also, the “C. atrox venom MP inhibition % effect” value in the assay with C. atrox venom MP was 4.03%. Besides, the “E. carinatus venom MP inhibition % effect” value in the assay on E. carinatus venom MP is −0.20 to 4.61%. Further, the “Snake venom metalloprotease inhibition” value in assay [10] is given as −0.20 to 4.61%.
With `O=C(O)C[C@H](O)C[C@H](O)/C=C/c1c(C2CC2)nc2ccccc2c1-c1ccc(F)cc1` [ITAVASTATIN, Pitavastatin], in the assay on C. atrox venom MP, the “C. atrox venom MP inhibition % effect” value is 5.09%. The “E. carinatus venom MP inhibition % effect” value in the assay with E. carinatus venom MP is given as 0.48%. In addition, in [10], the “Snake venom metalloprotease inhibition” value is given as 0.48 to 5.09%.
As to `CC[C@H](C)C(=O)O[C@H]1C[C@@H](C)C=C2C=C[C@H](C)[C@H](CC[C@@H]3C[C@@H](O)CC(=O)O3)[C@H]21` [LOVASTATIN, Lovastatin], in the assay with M. fulvius venom sPLA2, the “M. fulvius venom sPLA2 inhibition % effect” value came out at 11.09%. Also, the “E. carinatus venom MP inhibition % effect” value with E. carinatus venom MP is −1.89%.
In the case of `NC(=O)c1ccc(Cc2ccccc2)cc1-c1cccc(CCC(=O)O)c1` [Compound 4, 3-(5′-Benzyl-2′-carbamoylbiphenyl-3-yl) propanoic acid], the anti-hemolytic activity entry in assay [11] was “anti-hemolytic activity”. Also, the concentration for half-maximal inhibition (IC50) in assay [2] is 670 nM; against bee venom sPLA2 [6] it was above 70000 nM; in assay [7] it was 88 nM; in the assay with V. berus venom sPLA2 it was 170 nM. Further, in assay [5], the “Plasma Histamine” value is 10.1 ng/mL. Also, the “inhibitory activity in vitro” value at bee venom sPLA2 [6] was “very weak inhibitory activity; also recorded: virtually no effect”. Further, the “signs of acute kidney injury (gross kidney appearance)” value in assay [9] is on record as “comparably minimal signs of acute kidney injury”.
As for `CCc1c(C(=O)C(N)=O)c2c(OCC(=O)OC)cccc2n1Cc1ccccc1` [Me-Varespladib], the IC50 is 360 nM in assay [1]; 80 nM in the assay on V. russelli venom sPLA2; 430 nM in assay [7]; 200 nM in the assay with C. atrox venom sPLA2; 170 nM in the assay with V. berus venom sPLA2. The “performance in vitro against bee venom sPLA2 in earlier studies” value on bee venom sPLA2 [4] is reported as “performed extremely poorly”. Further, the “inhibitory activity in vitro” value on bee venom sPLA2 [6] is listed as “very weak inhibitory activity; also recorded: not potent inhibitors”.
